According to patent US10544143B2, “4-azaindole compounds” (BRISTOL-MYERS SQUIBB COMPANY, priority 2017, dated 2020):
Read-outs that look alike come from different tables or passages of the source.

What was measured:
human TLR9 = human TLR9 (Homo sapiens (Human), UniProt Q9NR96); experiment: TLR9 inhibition reporter assay (HEK-Blue SEAP);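 further: SEAP driven by an IFN-β minimal promoter with NF-κB and AP-1 sites, read after 22 h, compounds dosed 0.05 nM–50 µM, inhibition scaled between agonist plus DMSO and reference-inhibitor wells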
human TLR7 = human TLR7 (Homo sapiens (Human), UniProt Q9NYK1); experiment: TLR7 inhibition reporter assay (HEK-Blue SEAP); assay type: cell-based
human TLR8 = human TLR8 (Homo sapiens (Human), UniProt Q9NR97); experiment: TLR8 inhibition reporter assay (HEK-Blue SEAP);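 further: SEAP driven by IFN-β minimal promoter carrying NF-κB and AP-1 sites, compounds dosed 0.05 nM to 50 µM for 22 h, inhibition scaled between agonist-plus-DMSO and reference-inhibitor wells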
[1] = read-out: TLR9 IC50, HEK-Blue cells overexpressing human TLR9, SEAP reporter, ODN2006 5 nM
[2] = HEK-Blue cells overexpressing human TLR7, SEAP reporter, gardiquimod 7.5 μM
[3] = read-out: TLR8 IC50, HEK-Blue cells overexpressing human TLR8, SEAP reporter, R848 15.9 μM
[4] = read-out: TLR9 IC50, HEK-Blue human TLR9 cells, ODN2006 5 nM
[5] = HEK-Blue human TLR7 cells, gardiquimod 7.5 μM
[6] = read-out: TLR8 IC50, HEK-Blue human TLR8 cells, R848 15.9 μM
[7] = read-out: TLR9 IC50, HEK-Blue cells overexpressing human TLR9, ODN2006 5 nM stimulation, SEAP reporter
[8] = HEK-Blue cells overexpressing human TLR7, gardiquimod 7.5 μM stimulation, SEAP reporter
[9] = read-out: TLR8 IC50, HEK-Blue cells overexpressing human TLR8, R848 15.9 μM stimulation, SEAP reporter

human TLR8, sequence (Q9NR97 27-1041): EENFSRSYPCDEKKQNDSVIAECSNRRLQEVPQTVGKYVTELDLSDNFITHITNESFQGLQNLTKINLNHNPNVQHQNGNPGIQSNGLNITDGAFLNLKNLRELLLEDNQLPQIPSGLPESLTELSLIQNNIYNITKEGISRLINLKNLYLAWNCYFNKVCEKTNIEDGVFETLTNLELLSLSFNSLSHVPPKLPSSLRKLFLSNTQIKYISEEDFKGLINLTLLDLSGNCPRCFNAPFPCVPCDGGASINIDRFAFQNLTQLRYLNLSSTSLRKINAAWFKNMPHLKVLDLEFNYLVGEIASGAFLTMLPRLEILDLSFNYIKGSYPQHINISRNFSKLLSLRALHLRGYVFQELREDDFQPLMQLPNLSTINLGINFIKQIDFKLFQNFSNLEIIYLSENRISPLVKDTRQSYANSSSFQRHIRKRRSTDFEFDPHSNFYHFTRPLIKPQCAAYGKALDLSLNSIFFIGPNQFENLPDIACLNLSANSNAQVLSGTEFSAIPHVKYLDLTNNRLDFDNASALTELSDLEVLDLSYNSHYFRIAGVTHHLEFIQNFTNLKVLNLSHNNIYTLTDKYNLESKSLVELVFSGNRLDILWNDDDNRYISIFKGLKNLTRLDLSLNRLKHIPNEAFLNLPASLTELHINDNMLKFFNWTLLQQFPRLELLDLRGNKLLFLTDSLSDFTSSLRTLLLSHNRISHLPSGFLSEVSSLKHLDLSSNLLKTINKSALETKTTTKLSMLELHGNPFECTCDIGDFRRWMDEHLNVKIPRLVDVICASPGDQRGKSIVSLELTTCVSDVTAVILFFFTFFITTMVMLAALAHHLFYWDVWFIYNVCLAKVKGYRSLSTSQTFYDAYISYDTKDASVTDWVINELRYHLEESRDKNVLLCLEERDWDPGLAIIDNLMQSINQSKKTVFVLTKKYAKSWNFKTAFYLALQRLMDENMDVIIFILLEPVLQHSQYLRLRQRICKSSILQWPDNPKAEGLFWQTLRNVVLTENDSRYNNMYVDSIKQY
human TLR7, sequence (Q9NYK1 27-1049): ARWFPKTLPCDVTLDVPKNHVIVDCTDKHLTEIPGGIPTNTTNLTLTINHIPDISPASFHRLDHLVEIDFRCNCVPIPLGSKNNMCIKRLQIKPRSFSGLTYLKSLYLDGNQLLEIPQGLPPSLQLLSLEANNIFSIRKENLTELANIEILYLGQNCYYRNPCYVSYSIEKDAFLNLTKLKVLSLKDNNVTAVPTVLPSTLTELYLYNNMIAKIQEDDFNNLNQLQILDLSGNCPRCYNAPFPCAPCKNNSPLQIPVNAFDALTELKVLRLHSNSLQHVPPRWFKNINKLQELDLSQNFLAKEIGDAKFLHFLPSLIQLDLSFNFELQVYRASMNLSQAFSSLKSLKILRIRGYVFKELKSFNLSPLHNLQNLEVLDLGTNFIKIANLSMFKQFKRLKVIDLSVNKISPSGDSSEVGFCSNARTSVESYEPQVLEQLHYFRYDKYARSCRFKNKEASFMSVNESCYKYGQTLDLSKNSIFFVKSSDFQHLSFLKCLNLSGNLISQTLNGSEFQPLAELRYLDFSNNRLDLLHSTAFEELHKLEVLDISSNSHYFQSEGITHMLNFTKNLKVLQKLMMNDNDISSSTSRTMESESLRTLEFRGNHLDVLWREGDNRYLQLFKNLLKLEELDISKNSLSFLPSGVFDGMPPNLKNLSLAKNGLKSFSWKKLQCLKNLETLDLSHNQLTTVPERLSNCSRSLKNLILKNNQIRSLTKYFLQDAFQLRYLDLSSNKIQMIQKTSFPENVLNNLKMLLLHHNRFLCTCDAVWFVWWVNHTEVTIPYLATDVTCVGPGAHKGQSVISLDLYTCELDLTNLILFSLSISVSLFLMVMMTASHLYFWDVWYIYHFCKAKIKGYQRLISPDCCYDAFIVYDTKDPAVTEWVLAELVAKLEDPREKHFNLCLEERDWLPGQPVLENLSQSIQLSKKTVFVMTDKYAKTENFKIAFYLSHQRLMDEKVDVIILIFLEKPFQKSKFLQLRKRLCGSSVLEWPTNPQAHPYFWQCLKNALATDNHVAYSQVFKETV
human TLR9, sequence (Q9NR96 26-1032): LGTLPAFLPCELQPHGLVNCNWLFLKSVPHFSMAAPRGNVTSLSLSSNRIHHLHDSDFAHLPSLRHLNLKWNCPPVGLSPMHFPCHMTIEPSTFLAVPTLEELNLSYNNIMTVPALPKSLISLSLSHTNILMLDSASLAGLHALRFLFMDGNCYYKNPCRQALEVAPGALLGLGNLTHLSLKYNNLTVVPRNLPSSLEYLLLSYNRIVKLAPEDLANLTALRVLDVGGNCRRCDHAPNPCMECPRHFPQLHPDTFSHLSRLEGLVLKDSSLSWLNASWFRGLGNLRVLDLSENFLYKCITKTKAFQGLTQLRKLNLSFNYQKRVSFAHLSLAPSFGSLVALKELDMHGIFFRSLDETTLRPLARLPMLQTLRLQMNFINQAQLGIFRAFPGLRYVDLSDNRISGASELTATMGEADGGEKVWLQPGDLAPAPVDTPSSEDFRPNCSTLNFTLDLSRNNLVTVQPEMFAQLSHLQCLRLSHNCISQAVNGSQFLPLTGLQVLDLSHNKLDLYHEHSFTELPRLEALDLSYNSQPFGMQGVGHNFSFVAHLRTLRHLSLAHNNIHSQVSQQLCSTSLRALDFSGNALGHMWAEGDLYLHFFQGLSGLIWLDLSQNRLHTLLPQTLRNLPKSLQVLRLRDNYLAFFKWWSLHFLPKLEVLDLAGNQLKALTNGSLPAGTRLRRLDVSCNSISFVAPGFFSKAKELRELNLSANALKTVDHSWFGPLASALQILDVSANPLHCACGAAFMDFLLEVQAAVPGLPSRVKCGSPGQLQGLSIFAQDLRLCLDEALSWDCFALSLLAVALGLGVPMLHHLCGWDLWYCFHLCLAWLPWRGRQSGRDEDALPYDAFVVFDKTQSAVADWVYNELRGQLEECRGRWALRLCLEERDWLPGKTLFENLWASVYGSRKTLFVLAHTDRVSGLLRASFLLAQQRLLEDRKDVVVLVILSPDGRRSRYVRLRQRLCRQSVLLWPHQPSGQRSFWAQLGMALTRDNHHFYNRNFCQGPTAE

In the case of Cc1c(-c2[nH]c3ccc(C4CNCCN4)nc3c2C(C)C)cn2ncnc2c1C (stereo not drawn) [Example 680, 6-(3-isopropyl-5-(piperazin-2-yl)-1H-pyrrolo[3,2-b]pyridin-2-yl)-7,8-dimethyl-[1,2,4]triazolo[1,5-a]pyridine], the IC50 (human TLR9; [1]) is reported as 1060 nM, the IC50 (human TLR7; [2]) is reported as 12 nM and the IC50 (human TLR8; [3]) is reported as 5.2 nM.
For Cc1c(-c2[nH]c3ccc(N4CCN(CCCS(C)(=O)=O)[C@H](C)C4)nc3c2C(C)C)cn2ncnc2c1C [Example 856], the IC50 (human TLR9; [4]) was 27100 nM, the IC50 (human TLR7; [5]) was 7.3 nM and the IC50 (human TLR8; [6]) was 0.46 nM.
COc1cc(-c2[nH]c3ccc(N4CCN(C5CCOCC5)CC4)nc3c2C(C)C)cn2ncnc12 [Example 104] showed an IC50 (human TLR9; [7]) of 4160 nM, an IC50 (human TLR7; [8]) of 2.3 nM and an IC50 (human TLR8; [9]) of 0.75 nM.
For Cc1c(-c2[nH]c3ccc(C4CCC(N(CCC#N)C5CC5)CC4)nc3c2C(C)C)cn2ncnc2c1C (stereo not drawn) [Example 433], the IC50 (human TLR9; [1]) was over 50000 nM, the IC50 (human TLR7; [2]) was 42 nM and the IC50 (human TLR8; [3]) was 60 nM.
Work on Cc1c(-c2[nH]c3ccc(C4CCC(NC(C)C)CC4)nc3c2C(C)C)cn2ncnc2c1C (stereo not drawn) [Example 358] yielded an IC50 (human TLR9; [7]) of 1320 nM, an IC50 (human TLR7; [8]) of 0.95 nM and an IC50 (human TLR8; [9]) of 2.8 nM.
CC(C)c1c(-c2cn(C)c3ncccc23)[nH]c2ccc(C3CCC(NCC(C)(C)S(C)(=O)=O)CC3)nc12 (stereo not drawn) [Example 278] gave an IC50 (human TLR9; [7]) of 837 nM, an IC50 (human TLR7; [8]) of 1.5 nM and an IC50 (human TLR8; [9]) of 1.2 nM.
In the case of CNC(=O)CCN1CCN(c2ccc3[nH]c(-c4cn5ncnc5c(C)c4C)c(C(C)C)c3n2)[C@@H](C)C1 [Example 818], the IC50 (human TLR9; [4]) is reported as 12800 nM, the IC50 (human TLR7; [5]) is reported as 0.78 nM and the IC50 (human TLR8; [6]) is reported as 0.43 nM.
Cc1c(-c2[nH]c3ccc(C4CCC(N5CCC5)CC4)nc3c2C(C)C)cn2ncnc2c1C (stereo not drawn) [Example 1051] showed an IC50 (human TLR9; [4]) of 1910 nM, an IC50 (human TLR7; [5]) of 0.41 nM and an IC50 (human TLR8; [6]) of 1.5 nM.
Compound COc1cc(-c2[nH]c3ccc(N4CC(N(C)C)C4)nc3c2C(C)C)cn2ncnc12 [Example 13] has an IC50 (human TLR9; [7]) of 5020 nM, an IC50 (human TLR7; [8]) of 3.2 nM and an IC50 (human TLR8; [9]) of 1.9 nM.
In the case of Cc1cc2[nH]c(-c3cc(C)c4ncnn4c3)c(C(C)C)c2nc1C1CCN(CC(C)(C)O)CC1 [Example 572], the IC50 (human TLR9; [1]) is reported as 1200 nM, the IC50 (human TLR7; [2]) is reported as 4.6 nM and the IC50 (human TLR8; [3]) is reported as 25 nM.
Compound Cc1c(-c2[nH]c3ccc(N4CC(N)C4)nc3c2C(C)C)cn2ncnc2c1C [Example 14] has an IC50 (human TLR9; [7]) of 4330 nM, an IC50 (human TLR7; [8]) of 11 nM and an IC50 (human TLR8; [9]) of 4.2 nM.
Work on Cc1c(-c2[nH]c3ccc(N4C[C@H](C)N(C(=O)CN(C)C(C)C)C[C@H]4C)nc3c2C(C)C)cn2ncnc2c1C [Example 938] yielded an IC50 (human TLR9; [4]) of 8560 nM, an IC50 (human TLR7; [5]) of 2.6 nM and an IC50 (human TLR8; [6]) of 4.9 nM.
With Cc1c(-c2[nH]c3ccc(C4CCC(N(CC#N)CCS(C)(=O)=O)CC4)nc3c2C(C)C)cn2ncnc2c1C (stereo not drawn) [Example 458] the IC50 (human TLR9; [1]) was 9840 nM, the IC50 (human TLR7; [2]) was 5 nM and the IC50 (human TLR8; [3]) was 10 nM.
Compound CC(C)c1c(-c2cn(CC#N)c3ncccc23)[nH]c2ccc(C3CCC(NCC(=O)N(C)C)CC3)nc12 (stereo not drawn) [Example 272] has an IC50 (human TLR9; [7]) of 398 nM, an IC50 (human TLR7; [8]) of 76 nM and an IC50 (human TLR8; [9]) of 50 nM.
Cc1c(-c2[nH]c3ccc(C4CC5(C4)CN(CCC(N)=O)C5)nc3c2C(C)C)cn2ncnc2c1C [Example 1029] was tested, and the IC50 (human TLR9; [4]) was 8380 nM, the IC50 (human TLR7; [5]) was 1.4 nM and the IC50 (human TLR8; [6]) was 5 nM.
COc1cc(-c2[nH]c3ccc(C4CCC(N(C)CCO)CC4)nc3c2C(C)C)cn2ncnc12 (stereo not drawn) [Example 169] was tested, and the IC50 (human TLR9; [7]) was 1220 nM, the IC50 (human TLR7; [8]) was 3.1 nM and the IC50 (human TLR8; [9]) was 21 nM.
COc1cc(-c2[nH]c3ccc(C4CC(NC(=O)CN(C)C)C4)nc3c2C(C)C)cn2ncnc12 (stereo not drawn) [Example 638] showed an IC50 (human TLR9; [1]) of 1270 nM, an IC50 (human TLR7; [2]) of 2.9 nM and an IC50 (human TLR8; [3]) of 7.3 nM.
Cc1c(-c2[nH]c3ccc(N4C[C@@H](C)N(C(=O)CCN5CC6(CCO6)C5)C[C@@H]4C)nc3c2C(C)C)cn2ncnc2c1C [Example 958] was tested, and the IC50 (human TLR9; [4]) was 11200 nM, the IC50 (human TLR7; [5]) was 0.27 nM and the IC50 (human TLR8; [6]) was 2.3 nM.
Cc1c(-c2[nH]c3ccc(C4CCC(N5CC6(CCOC6)C5)CC4)nc3c2C(C)C)cn2ncnc2c1C (stereo not drawn) [Example 1065] gave an IC50 (human TLR9; [4]) of 2800 nM, an IC50 (human TLR7; [5]) of 1.1 nM and an IC50 (human TLR8; [6]) of 1.1 nM.
Cc1c(-c2[nH]c3ccc(N4CCC(N(Cc5cn(C)nn5)Cc5cn(C)nn5)CC4)nc3c2C(C)C)cn2ncnc2c1C [Example 73] was tested, and the IC50 (human TLR9; [7]) was 24900 nM, the IC50 (human TLR7; [8]) was 29 nM and the IC50 (human TLR8; [9]) was 5.7 nM.
With Cc1c(-c2[nH]c3ccc(C4CCN(CCS(C)(=O)=O)CC4)nc3c2C(C)C)cn2ncnc2c1C [Example 556] the IC50 (human TLR9; [1]) was 5080 nM, the IC50 (human TLR7; [2]) was 1.7 nM and the IC50 (human TLR8; [3]) was 1.1 nM.
With COc1cc(-c2[nH]c3cc(F)c(C4CCC(NC5COC5)CC4)nc3c2C(C)C)cn2ncnc12 (stereo not drawn) [Example 345] the IC50 (human TLR9; [7]) was 1680 nM, the IC50 (human TLR7; [8]) was 0.21 nM and the IC50 (human TLR8; [9]) was 0.68 nM.
Work on [2H]C([2H])([2H])N(CC(=O)N1CCN(c2ccc3[nH]c(-c4cn5ncnc5c(C)c4C)c(C(C)C)c3n2)CC1)C([2H])([2H])[2H] (single isomer, unassigned) [Example 831] yielded an IC50 (human TLR9; TLR9 IC50, HEK-Blue human TLR9 cells, ODN2006 5 nM) of 8550 nM, an IC50 (human TLR7; [5]) of 1.5 nM and an IC50 (human TLR8; TLR8 IC50, HEK-Blue human TLR8 cells, R848 15.9 μM) of 2.3 nM.
